Test results as given in patent publication US10821100B2, “Triazolone compounds as mPGES-1 inhibitors” (Glenmark Pharmaceuticals S.A., priority 2012, dated 2020).

Biological target: T1, Recombinant human mPGES-1 (Homo sapiens, UniProt O14684)
T1 construct: made in house; host or cells: CHO cells (crude microsomal fractions)
T1 sequence (O14684 1-152): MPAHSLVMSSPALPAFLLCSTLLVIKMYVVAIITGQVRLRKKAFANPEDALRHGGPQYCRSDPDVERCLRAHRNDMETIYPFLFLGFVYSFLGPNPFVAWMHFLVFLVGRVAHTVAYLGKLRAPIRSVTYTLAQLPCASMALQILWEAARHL
Experiment: In-vitro screening of mPGES-1 inhibitors (inhibition of PGE2 formation from PGH2, HTRF detection)
Type: biochemical
Details: mPGES-1 enzyme; for inhibition at 1 µM: 1 μM test compound, read-out: Percentage inhibition at 1 μM; for inhibition at 1 µM / inhibition at 10 µM: crude microsomal fractions; for inhibition at 10 µM: 10 μM test compound, read-out: Percentage inhibition at 10 μM; for IC50: class symbols
How it was run: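 PGH2-to-PGE2 isomerization run for 1 min with 15 μM PGH2 after 10 min compound preincubation with microsomal enzyme (40–60 μg/mL) and 2.5 mM GSH, pH buffer 0.1 M potassium phosphate with EDTA. Stannous chloride quench, HTRF PGE2 readout, IC50 fitted against uninhibited reaction.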

CC(C)(C)C(=O)NCc1cc(-c2nn(-c3ccc(F)c(C(F)(F)F)c3)c(=O)[nH]2)c(Cl)cc1F [Example-128, N-(4-Chloro-2-fluoro-5-(1-(4-fluoro-3-(trifluoromethyl)phenyl)-4,5-dihydro-5-oxo-1H-1,2,4-triazol-3-yl)benzyl)pivalamide]
inhibition at 1 µM: 91.8% | inhibition at 10 µM: 89.3% | IC50: < 50 nM

CC(C)(C)C(=O)NCc1cc(-c2nn(-c3ccc(C(F)(F)F)nc3)c(=O)[nH]2)c(Cl)cc1F [Example-129, N-(4-Chloro-2-fluoro-5-(1-(6-(trifluoromethyl)pyridin-3-yl)-4,5-dihydro-5-oxo-1H-1,2,4-triazol-3-yl)benzyl)pivalamide]
inhibition at 1 µM: 93.5% | inhibition at 10 µM: 92.1% | IC50: < 50 nM

CC(C)(C)C(=O)NCc1cc(-n2nc(-c3ccc(C#CC4CC4)cc3)[nH]c2=O)c(Cl)cc1Cl [Example-130, N-(2,4-Dichloro-5-(3-(4-(2-cyclopropylethynyl)phenyl)-4,5-dihydro-5-oxo-1,2,4-triazol-1-yl)benzyl)pivalamide]
inhibition at 1 µM: 96.6% | inhibition at 10 µM: 97.8% | IC50: 50 to 100 nM

CC(C)(C)C(=O)NCc1cc(-c2nn(-c3ccc(F)c(Cl)c3)c(=O)[nH]2)c(Cl)cc1F [Example-131, N-(4-Chloro-5-(1-(3-chloro-4-fluorophenyl)-4,5-dihydro-5-oxo-1H-1,2,4-triazol-3-yl)-2-fluorobenzyl)pivalamide]
inhibition at 1 µM: 100% | inhibition at 10 µM: 99.2% | IC50: < 50 nM

O=C(NCc1cc(-c2nn(-c3ccc(Cl)cc3)c(=O)[nH]2)c(Cl)cc1F)c1ccccc1F [Example-132, N-(4-Chloro-5-(1-(4-chlorophenyl)-4,5-dihydro-5-oxo-1H-1,2,4-triazol-3-yl)-2-fluorobenzyl)-2-fluorobenzamide]
inhibition at 1 µM: 91.8% | inhibition at 10 µM: 89.8% | IC50: < 50 nM

CC(C)C(=O)NCc1cc(-c2nn(-c3ccc(C(F)(F)F)cc3)c(=O)[nH]2)c(Cl)cc1F [Example-133, N-(4-Chloro-2-fluoro-5-(1-(4-(trifluoromethyl)phenyl)-4,5-dihydro-5-oxo-1H-1,2,4-triazol-3-yl)benzyl)isobutyramide]
inhibition at 1 µM: 98% | inhibition at 10 µM: 97.9% | IC50: < 50 nM

CC(C)(CF)C(=O)NCc1cc(-c2nn(-c3ccc(Cl)cc3)c(=O)[nH]2)c(Cl)cc1F [Example-134, N-(4-Chloro-5-(1-(4-chlorophenyl)-4,5-dihydro-5-oxo-1H-1,2,4-triazol-3-yl)-2-fluorobenzyl)-3-fluoro-2,2-dimethylpropanamide]
inhibition at 1 µM: 91.5% | inhibition at 10 µM: 93.9% | IC50: < 50 nM

Cc1ccc(-n2nc(-c3cc(CNC(=O)C(C)(C)C)c(F)cc3Cl)[nH]c2=O)cc1Cl [Example-135, N-(4-Chloro-5-(1-(3-chloro-4-methylphenyl)-4,5-dihydro-5-oxo-1H-1,2,4-triazol-3-yl)-2-fluorobenzyl)pivalamide]
inhibition at 1 µM: 92.3% | inhibition at 10 µM: 98.9% | IC50: < 50 nM

CC(C)(C)C(=O)NCc1cc(-n2nc(-c3ccc(C#CC4CC4)cc3)[nH]c2=O)c(Cl)cc1F [Example-136, N-(4-Chloro-5-(3-(4-(2-cyclopropylethynyl)phenyl)-4,5-dihydro-5-oxo-1,2,4-triazol-1-yl)-2-fluorobenzyl)pivalamide]
inhibition at 1 µM: 95.1% | inhibition at 10 µM: 94.8% | IC50: < 50 nM

CC(C)(C)C#Cc1ccc(-c2nn(-c3cc(CNC(=O)C(C)(C)C)c(F)cc3Cl)c(=O)[nH]2)cc1 [Example-137, N-(4-Chloro-2-fluoro-5-(4,5-dihydro-3-(4-(3,3-dimethylbut-1-ynyl)phenyl)-5-oxo-1,2,4-triazol-1-yl)benzyl)pivalamide]
inhibition at 1 µM: 93.4% | inhibition at 10 µM: 93.1% | IC50: < 50 nM
